Values of other authors, collected in patent US20240016731A1, “Drug Implants Containing Apalutamide and Methods of Use Thereof” (The Regents of the University of California, priority 2020, published 2024).

Settings: systemic (e.g., oral) administration, assuming 240 mg daily dose

Compound: CNC(=O)c1ccc(N2C(=S)N(c3cnc(C#N)c(C(F)(F)F)c3)C(=O)C23CCC3)cc1F [apalutamide, Apalutamide]
- steady state blood plasma concentration of apalutamide: about 6 μg/ml
